This passage reports IC50 results from patent US10112958B2, “N-[2-(2-amino-6,6-disubstituted-4,4a,5,6-tetrahydropyrano[3,4-d][1,3]thiazin-8a(8H)-YL)-1,3-thiazol-4-YL] amides” (Pfizer Inc., priority 2015, dated 2018).

The IC50 is the point on the concentration scale where inhibition reaches its midpoint. Low values mean greater potency in that assay, high ones weaker potency in that assay.

The target in the assay is T1, BACE1 enzyme (Homo sapiens, UniProt P56817).
T1 construct: transfected with a soluble BACE construct (BACE1deltaTM96His); His (C); made in house; host or cells: CHO-K1 cells (secreted into conditioned media)
T1 sequence (P56817 46-457 limits assumed): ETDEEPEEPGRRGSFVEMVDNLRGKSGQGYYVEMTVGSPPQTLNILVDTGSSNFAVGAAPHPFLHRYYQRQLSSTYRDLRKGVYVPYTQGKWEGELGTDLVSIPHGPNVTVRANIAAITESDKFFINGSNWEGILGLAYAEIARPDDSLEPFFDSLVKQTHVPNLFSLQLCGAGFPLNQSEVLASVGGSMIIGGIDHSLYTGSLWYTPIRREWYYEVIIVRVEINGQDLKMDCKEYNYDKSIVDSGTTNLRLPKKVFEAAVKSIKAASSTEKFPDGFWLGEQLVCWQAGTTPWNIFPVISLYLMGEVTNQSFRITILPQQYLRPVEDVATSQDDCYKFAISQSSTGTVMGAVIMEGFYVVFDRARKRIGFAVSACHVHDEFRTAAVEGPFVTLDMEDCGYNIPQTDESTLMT
The experiment in a line: BACE1 Cell-Free Assay (fluorescence polarization, cleavage of synthetic APP substrate). It counts as biochemical. The note with it: geometric mean of 2-4 determinations unless otherwise indicated (b: ≥5 determinations; c: single determination); 0.1 nM BACE1, 150 nM peptide substrate, pH 4.5, 3 hours at 37° C. An excerpt:
BACE1 Cell-Free Assay: Beta-secretase (BACE) is one of the enzymes involved in the generation of the amyloid beta peptide found in the amyloid plaques of Alzheimer's disease patients. This assay measures the inhibition of the beta-secretase enzyme as it cleaves a non-native peptide.
A synthetic APP substrate that can be cleaved by beta-secretase having N-terminal biotin and made fluorescent by the covalent attachment of Oregon Green at the Cys residue is used to assay beta-secretase activity in the presence or absence of the inhibitory compounds. The substrate is Biotin-GLTNIKTEEISEISY^EVEFR-C[Oregon Green]KK-OH. The BACE1 enzyme is affinity purified material from conditioned media of CHO-K1 cells that have been transfected with a soluble BACE construct (BACE1deltaTM96His). Compounds are incubated in a ½ log dose response curve from a top concentration of 100 μM with BACE1 enzyme and the biotinylated fluorescent peptide in 384-well black plates (Thermo Scientific #4318). BACE1 is at a final concentration of 0.1 nM with a final concentration of peptide substrate of 150 nM in a reaction volume of 30 μL assay buffer [100 mM sodium acetate, pH 4.5 (brought to pH with acetic acid), and 0.001% Tween-20]. Plates are covered and incubated for 3 hours at 37° C. The reaction is stopped with the addition of 30 μL of 1.5 μM Streptavidin (Pierce, #21125). After a 10 minute incubation at room temperature, plates are read on a PerkinElmer EnVision for fluorescence polarization (Ex485 nm/Em530 nm). The activity of the beta-secretase enzyme is detected by changes in the fluorescence polarization that occur when the substrate is cleaved by the enzyme.
(Fluorescence polarisation rises when a labelled molecule tumbles more slowly, as on binding a larger partner.)
For `Cc1cc(OC(F)F)cnc1C(=O)Nc1csc([C@]23COC(C)(C)C[C@H]2CSC(N)=N3)n1` [Example 24, N-{2-[(4aR,8aR)-2-amino-6,6-dimethyl-4,4a,5,6-tetrahydropyrano[3,4-d][1,3]thiazin-8a(8H)-yl]-1,3-thiazol-4-yl}-5-(difluoromethoxy)-3-methylpyridine-2-carboxamide], the IC50 is 47 nM.
With `CC(F)(F)COc1cnc(C(=O)Nc2csc([C@]34COC(C)(C)C[C@H]3CSC(N)=N4)n2)cn1` (single isomer, unassigned) [Example 19] the figure was 421 nM; with `NC1=N[C@@]2(c3nc(NC(=O)c4ccc(F)cn4)cs3)COC3(CCC3)C[C@H]2CS1` [Example 41, N-{2-[(4a′R,8a′R)-2′-amino-4a′,5′-dihydro-4′H-spiro[cyclobutane-1,6′-pyrano[3,4-d] [1,3]thiazin]-8a′(8′H)-yl]-1,3-thiazol-4-yl}-5-fluoropyridine-2-carboxamide], 714 nM.
For the compound `CC(F)(F)Oc1ccc(C(=O)Nc2csc([C@]34COC(C)(C)C[C@H]3CSC(N)=N4)n2)nc1` (single isomer, unassigned) [Example 17], inhibition was half-maximal at 416 nM (IC50). This IC50 is about 1.7-fold lower than that of the compound before.
Regarding `NC1=N[C@@]2(c3nc(NC(=O)c4ccc(OC(F)F)cn4)cs3)COC3(COC3)C[C@H]2CS1` [Example 29, N-{2-[(4a′R,8a′R)-2′-amino-4a′,5′-dihydro-4′H-spiro[oxetane-3,6′-pyrano[3,4-d][1,3]thiazin]-8a′(8′H)-yl]-1,3-thiazol-4-yl}-5-(difluoromethoxy)pyridine-2-carboxamide], it took 675 nM to reach half-maximal inhibition (IC50).
For `CC(F)(F)Oc1ccc(C(=O)Nc2csc([C@@]34COC(C)(C)C[C@@H]3CSC(N)=N4)n2)nc1` (single isomer, unassigned) [Example 16], the concentration for half-maximal inhibition (IC50) was determined as 28500 nM.
Next, `NC1=N[C@@]2(c3nc(NC(=O)c4ccc(OC(F)F)cn4)cs3)COC3(CCC3)C[C@H]2CS1` (single isomer, unassigned) [Example 5, N-{2-[(4a′R,8a′R)-2′-amino-4a′,5′-dihydro-4′H-spiro[cyclobutane-1,6′-pyrano[3,4-d] [1,3]thiazin]-8a′(8′H)-yl]-1,3-thiazol-4-yl}-5-(difluoromethoxy)pyridine-2-carboxamide]: 138 nM.
`COC[C@]1(C)C[C@H]2CSC(N)=N[C@@]2(c2nc(NC(=O)c3ccc(OC(F)F)cn3)cs2)CO1` [Example 40, N-{2-[(4aR,6S,8aR)-2-amino-6-(methoxymethyl)-6-methyl-4,4a,5,6-tetrahydropyrano[3,4-d][1,3]thiazin-8a(8H)-yl]-1,3-thiazol-4-yl}-5-(difluoromethoxy) pyridine-2-carboxamide] registered an IC50 of 2080 nM.
With `NC1=N[C@@]2(c3nc(NC(=O)c4ccc(OC(F)F)cn4)cs3)COC(CF)(CF)C[C@H]2CS1` [Example 10, N-{2-[(4aR,8aR)-2-amino-6,6-bis(fluoromethyl)-4,4a,5,6-tetrahydropyrano[3,4-d][1,3]thiazin-8a(8H)-yl]-1,3-thiazol-4-yl}-5-(difluoromethoxy)pyridine-2-carboxamide] the figure was 565 nM; with `CC#CCOc1ccc(C(=O)Nc2csc([C@]34COC(C)(C)C[C@H]3CSC(N)=N4)n2)nc1` (single isomer, unassigned) [Example 2], 88 nM; with `CC[C@]1(C)C[C@@H]2CSC(N)=N[C@]2(c2nc(NC(=O)c3ccc(OC(F)F)cn3)cs2)CO1` [Example 28, N-{2-[(4aS,6R,8aS)-2-amino-6-ethyl-6-methyl-4,4a,5,6-tetrahydropyrano[3,4-d][1,3]thiazin-8a(8H)-yl]-1,3-thiazol-4-yl}-5-(difluoromethoxy)pyridine-2-carboxamide], 14800 nM.
With `CC[C@@]1(C)C[C@H]2CSC(N)=N[C@@]2(c2nc(NC(=O)c3ccc(OC(F)F)cn3)cs2)CO1` [Example 8, N-{2-[(4aR,6S,8aR)-2-amino-6-ethyl-6-methyl-4,4a,5,6-tetrahydropyrano[3,4-d] [1,3]thiazin-8a(8H)-yl]-1,3-thiazol-4-yl}-5-(difluoromethoxy)pyridine-2-carboxamide] the figure was 41 nM.
Next, `CC1(C)C[C@H]2CSC(N)=N[C@@]2(c2nc(NC(=O)c3ccc(OC(F)F)cn3)cs2)CO1` [Example 7, N-{2-[(4aR,8aR)-2-amino-6,6-dimethyl-4,4a,5,6-tetrahydropyrano[3,4-d][1,3]thiazin-8a(8H)-yl]-1,3-thiazol-4-yl}-5-(difluoromethoxy)pyridine-2-carboxamide]: 116 nM; `NC1=N[C@@]2(c3nc(NC(=O)c4ccc(Cl)cn4)cs3)COC3(CCC3)C[C@H]2CS1` [Example 6, N-{2-[(4a′R,8a′R)-2′-amino-4a′,5′-dihydro-4′H-spiro[cyclobutane-1,6′-pyrano[3,4-d][1,3]thiazin]-8a′(8′H)-yl]-1,3-thiazol-4-yl}-5-chloropyridine-2-carboxamide]: 88 nM.
As to `CC#CCOc1cnc(C(=O)Nc2csc([C@]34COC(C)(C)C[C@H]3CSC(N)=N4)n2)cn1` (single isomer, unassigned) [Example 21], it took 41 nM to reach half-maximal inhibition (IC50).
With `CC1(C)C[C@@H]2CSC(N)=N[C@]2(c2nc(NC(=O)c3coc(CF)n3)cs2)CO1` (single isomer, unassigned) [Example 22] the figure was 15100 nM.
Take `COC(C)(C)C(=O)Nc1csc([C@]23COC(C)(C)C[C@H]2CSC(N)=N3)n1` [Example 32, N-{2-[(4aR,8aR)-2-amino-6,6-dimethyl-4,4a,5,6-tetrahydropyrano[3,4-d][1,3]thiazin-8a(8H)-yl]-1,3-thiazol-4-yl}-2-methoxy-2-methylpropanamide]: the IC50 was found to be 1690 nM.
With `CC[C@@]1(C)C[C@H]2CSC(N)=N[C@@]2(c2nc(NC(=O)C3C4CC3C4)cs2)CO1` (stereo partly drawn) [Example 37, N-{2-[(4aR,6S,8aR)-2-amino-6-ethyl-6-methyl-4,4a,5,6-tetrahydropyrano[3,4-d][1,3]thiazin-8a(8H)-yl]-1,3-thiazol-4-yl}bicyclo[1.1.1]pentane-2-carboxamide], the IC50 turned out to be 177 nM.
